Several values for one entry are separate records, joined by “and”; a condition that tells them apart may be missing. Identical values can stand only once.
Key:
actin.MassS1 [1] = biological target: T1, actin.MassS1 (Bos taurus, UniProt Q9BE39); assay: ADP release rate constant (k-AD), ADP displacement by excess ATP; assay type: biochemical, bovine; design: effect of Pi on kobs of ADP release / increase in kobs of ADP release in the presence of phosphate / activation energy (Ea) of k−AD (ADP release): dose or concentration left out as unconfirmed; conditions: for kobs of ADP release (fast phase): 75 µM ADP displaced by 8 mM ATP; for activation energy (Ea) of k−AD (ADP release): Mass
T1 construct: from tissue; host or cells: bovine masseter muscle (myosin); rabbit muscle (actin)
Method: Two types of myosins were studied which are known to differ in their dissociation constant for nucleotides ([5], [51]). The rate constant for the release of ADP (k−ADP) is relatively slow for masseter S1 and can easily be measured in an ADP displacement experiment. This step is very fast for a fast muscle isoform and too fast to measure by current equipment. Briefly, actin.^MassS1 saturated with 75 µM of ADP (A.M.D complex) was mixed with a large excess of ATP (8 mM) in the stopped flow. Then the kobs values, fitted to a single exponential equation (Eqn 1) defined the rate constant by which ADP is released by the ternary A.M.D complex (k−AD).
The temperature dependence of the above studied biochemical steps K1k+2, KADP, KPi, and KADP+Pi data were plotted as the natural logarithm of the measured parameter against the reciprocal of temperature in degrees Kelvin (1/T °K) and fitted with linear regression using the Arrhenius (rate constants) or Van’t Hoff (equilibrium constants) equations(7)) lnK1k+2=ln(A)−Ea/RT (8)) lnKeq=ΔS°/R−ΔH°/RT where Ea stands for activation energy, R is the gas constant, and A is a preexponential factor. The values of –Ea/R or or ΔH°/R were derived from the slopes.

actin.MassS1 [2] = biological target: T1, actin.MassS1; design: method as in Bloemink et al. (4); conditions: ref Bloemink et al. (4); cited from earlier work
actin.MassS1 [3] = biological target: T1, actin.MassS1; assay: ADP dissociation constant in the presence of phosphate (KADP+Pi) and calculated KPi app, masseter; assay type: binding, bovine; conditions: 15 mM Pi
actin.MassS1 [4] = biological target: T1, actin.MassS1; assay: ADP dissociation constant (KADP) by competitive inhibition of ATP-induced dissociation, masseter; assay type: binding, bovine; conditions: for kobs of ATP-induced dissociation with ADP present: 25 µM ATP, 20°C, pH 7.0
Method: In a similar process, ADP dissociation constant (KADP), which defines ADP affinity for actin.S1, was measured by adding to the mixture ADP as a competitive inhibitor of ATP binding. In this case it is convenient to add the ADP to the ATP solution, i.e., 0.5 µM pyr.actin.S1 was mixed with 25 µM ATP with various concentrations of ADP present with the ATP (from 0 to 1200 µM). This approach assumes that ADP is in rapid equilibrium with the actin.S1 complex on the time scale of the ATP-induced dissociation reaction. This was ensured by using the low (25 µM) concentration of ATP. That this assumption holds was tested by repeating the measurement with ADP preincubated with actin.S1 and then mixing with ATP. The observed rate constants were identical in each case.
(§1) (4)) kobs=K1k+2[ATP]/[1+([I]/KI)]

actin.PsoS1 [5] = assay: ADP dissociation constant (KADP) by competitive inhibition of ATP-induced dissociation, psoas; assay type: binding, rabbit; conditions: for kobs of ATP-induced dissociation with ADP present: 25 µM ATP, 20°C
Method: In a similar process, ADP dissociation constant (KADP), which defines ADP affinity for actin.S1, was measured by adding to the mixture ADP as a competitive inhibitor of ATP binding. […] This approach assumes that ADP is in rapid equilibrium with the actin.S1 complex on the time scale of the ATP-induced dissociation reaction. This was ensured by using the low (25 µM) concentration of ATP. That this assumption holds was tested by repeating the measurement with ADP preincubated with actin.S1 and then mixing with ATP. The observed rate constants were identical in each case.
as §1

actin.PsoS1 [6] = assay: ADP dissociation constant in the presence of phosphate (KADP+Pi) and calculated KPi app, psoas; assay type: binding, rabbit; conditions: 30 mM Pi

Nc1ncnc2c1ncn2[C@@H]1O[C@H](COP(=O)(O)OP(=O)(O)O)[C@@H](O)[C@H]1O [ADP]
kobs of ADP release (fast phase) (actin.MassS1 [1]; pH 7.0, 5°C): 16.2 s⁻¹
kobs of ADP release (fast phase) (actin.MassS1 [1]; pH 7.0, 10°C): 26.0 s⁻¹
kobs of ADP release (fast phase) (actin.MassS1 [1]; pH 7.0, 20°C): 85 s⁻¹ and 85.0 s⁻¹
kobs of ADP release (fast phase) (actin.MassS1 [1]; pH 7.0, 30°C): 273 s⁻¹
kobs of ADP release (fast phase) (actin.MassS1 [1]; pH 7.0, […]°C): 46.3 s⁻¹
activation energy (Ea) of k−AD (ADP release) (actin.MassS1 [1]; pH 6.2, + […] mM Pi): 88.9 ± 3.9 kJ/mol
activation energy (Ea) of k−AD (ADP release) (actin.MassS1 [1]; pH 6.2, no Pi): 84.7 ± 6.1 kJ/mol
activation energy (Ea) of k−AD (ADP release) (actin.MassS1 [1]; pH 7.0, + […] mM Pi): 94.4 ± 5.0 kJ/mol
activation energy (Ea) of k−AD (ADP release) (actin.MassS1 [1]; pH 7.0, no Pi): 75.9 ± 4.1 kJ/mol
kobs of ADP release, published result (actin.MassS1 [2]): 94 s⁻¹
Kd (actin.MassS1 [3]; Masseter S1, pH 6.2, 10°C): 52.2 ± 4.2 µM
Kd (actin.MassS1 [3]; Masseter S1, pH 6.2, 20°C): 82.6 ± 5.7 µM
Kd (actin.MassS1 [3]; Masseter S1, pH 6.2, 30°C): 175 µM
Kd (actin.MassS1 [3]; Masseter S1, pH 7.0, 10°C): 22.5 ± 2.9 µM
Kd (actin.MassS1 [3]; Masseter S1, pH 7.0, 20°C): 44.4 ± 4.6 µM
Kd (actin.MassS1 [3]; Masseter S1, pH 7.0, 30°C): 79.3 ± 6.5 µM
kobs of ATP-induced dissociation with ADP present (actin.MassS1 [4]; 25 µM ADP): 21.7 s⁻¹
kobs of ATP-induced dissociation with ADP present (actin.MassS1 [4]; 100 µM ADP): 9.1 s⁻¹
kobs of ATP-induced dissociation with ADP present (actin.MassS1 [4]; 500 µM ADP): 2.6 s⁻¹
weakening of KADP at pH 6.2 vs pH 7.0 (actin.MassS1 [4]; MassS1, 30°C): 1.5 fold
Kd (actin.MassS1 [4]; Masseter S1, pH 6.2, 10°C): 22 µM and 21.8 µM
Kd (actin.MassS1 [4]; Masseter S1, pH 6.2, 20°C): 48.4 µM and 47 µM and 46.8 µM
Kd (actin.MassS1 [4]; Masseter S1, pH 6.2, 30°C): 83.9 ± 4.7 µM
Kd (actin.MassS1 [4]; Masseter S1, pH 7.0, 10°C): 9.6 µM and 10 µM and 10.3 µM
Kd (actin.MassS1 [4]; Masseter S1, pH 7.0, 20°C): 31 µM and 31.3 µM and 29.7 µM
Kd (actin.MassS1 [4]; Masseter S1, pH 7.0, 30°C): 56.2 ± 6.5 µM
kobs of ATP-induced dissociation with ADP present (actin.PsoS1 [5]; 0.25 mM ADP, pH 7.0): 45.9 s⁻¹
kobs of ATP-induced dissociation with ADP present (actin.PsoS1 [5]; 1 mM ADP, pH 7.0): 21.4 s⁻¹
kobs of ATP-induced dissociation with ADP present (actin.PsoS1 [5]; 4 mM ADP, pH 7.0): 14.5 s⁻¹
Kd (actin.PsoS1 [5]; Psoas S1, pH 6.2, 10°C, read-out: KADP): 256 ± 32 µM
Kd (actin.PsoS1 [5]; Psoas S1, pH 6.2, 20°C, read-out: KADP): 228 ± 36 µM
Kd (actin.PsoS1 [5]; Psoas S1, pH 6.2, 30°C, read-out: KADP): 236 ± 29 µM
Kd (actin.PsoS1 [5]; Psoas S1, pH 7.0, 10°C, read-out: KADP): 201 ± 34 µM
Kd (actin.PsoS1 [5]; Psoas S1, pH 7.0, 20°C, read-out: KADP): 203 ± 13 µM
Kd (actin.PsoS1 [5]; Psoas S1, pH 7.0, 30°C, read-out: KADP): 232 ± 29 µM
Kd (actin.PsoS1 [5]; psoas actin.S1, between 10 and 30°C, pH 7.0, read-out: ADP affinity (KADP)): ~200 µM
Kd (actin.PsoS1 [6]; Psoas S1, pH 6.2, 10°C, read-out: KADP+Pi): 665 ± 39 µM
Kd (actin.PsoS1 [6]; Psoas S1, pH 6.2, 20°C, read-out: KADP+Pi): 514 µM
Kd (actin.PsoS1 [6]; Psoas S1, pH 6.2, 30°C, read-out: KADP+Pi): 926 ± 73 µM
Kd (actin.PsoS1 [6]; Psoas S1, pH 7.0, 10°C, read-out: KADP+Pi): 770 ± 37 µM
Kd (actin.PsoS1 [6]; Psoas S1, pH 7.0, 20°C, read-out: KADP+Pi): 919 ± 72 µM
Kd (actin.PsoS1 [6]; Psoas S1, pH 7.0, 30°C, read-out: KADP+Pi): 942 µM and 1020 µM
Kd (actin.PsoS1 [6]; psoas, 10–20°C, pH 7.0, read-out: apparent KADP in the presence of Pi): ~500 µM

— paper PMC5814585, “Modulators of actin-myosin dissociation: basis for muscle type functional differences during fatigue” (American Journal of Physiology - Cell Physiology, 2017)
